These are literature values, as cited in patent US20250275556A1, “N[…] METHOD FOR PRODUCING THE SAME” (Kalium Agri, Inc., priority 2024, published 2025).

The conditions of this series: magnesium supplement in cattle, in optimal situations.

Turning to `[O]=[Mg]` [magnesium oxide], the digestible is given as 19%.
